Values of other authors in publication PMC12150326 (The Journal of Organic Chemistry, 2025).
Values joined by “and” are separate entries in the source; they are usually repeats but may differ in a detail not shown here. Equal values may be shown once. Read-outs that look alike come from different tables or passages of the source.

Experiments:
Set-up in all cases: method as in NCI-60 database
[1] = tested on: A549/ATCC; conditions: A549/ATCC ref NCI-60 database, cited from earlier work
[2] = tested on: SW-620; conditions: SW-620 ref NCI-60 database, cited from earlier work
[3] = tested on: SF-295; conditions: SF-295 ref NCI-60 database, cited from earlier work
[4] = tested on: M14; conditions: M14 ref NCI-60 database, cited from earlier work
[5] = tested on: IGROV1; conditions: IGROV1 ref NCI-60 database, cited from earlier work
[6] = tested on: ACHN; conditions: ACHN ref NCI-60 database, cited from earlier work
[7] = tested on: RXF 393; conditions: RXF 393 ref NCI-60 database, cited from earlier work
[8] = tested on: UO-31; conditions: UO-31 ref NCI-60 database, cited from earlier work
[9] = tested on: DU-145; conditions: DU-145 ref NCI-60 database, cited from earlier work
[10] = tested on: DMS 114; conditions: DMS 114 ref NCI-60 database, cited from earlier work

SMILES: COc1cc2c(c(OC)c1OC)-c1ccc(OC)c(=O)cc1[C@@H](NC(C)=O)CC2 [Colchicine, (−)-Colchicine]
- GI50 [1]: 260 nM
- Log10GI50 [1]: -6.58 Molar
- Log10LC50 [1]: > -4.00 Molar
- Log10TGI [1]: > -4.00 Molar
- Log10GI50 ([1]; listed as 757/9): -6.57 Molar
- GI50 [2]: 20 nM
- Log10GI50 [2]: -7.66 Molar
- Log10LC50 [2]: > -4.00 Molar
- Log10GI50 ([2]; listed as 757/1): -7.46 Molar
- Log10GI50 ([3]; listed as 757/1): < -8.00 Molar and -7.70 Molar
- Log10LC50 ([3]; listed as 757/1): -4.51 Molar
- Log10GI50 ([3]; listed as 757/9): -7.68 Molar and -7.69 Molar
- Log10TGI ([3]; listed as 757/9): -7.30 Molar
- Log10GI50 ([3]; listed as 757/21): -7.88 Molar and -7.77 Molar
- Log10LC50 ([3]; listed as 757/21): > -4.00 Molar
- Log10TGI ([3]; listed as 757/21): -7.39 Molar and -7.37 Molar
- GI50 [4]: 55 nM
- Log10GI50 [4]: -7.26 Molar
- Log10LC50 [4]: > -4.00 Molar
- Log10GI50 ([4]; listed as 757/9): -7.68 Molar
- Log10TGI ([4]; listed as 757/9): -6.43 Molar
- GI50 [5]: 52 nM
- Log10GI50 [5]: -7.28 Molar
- Log10LC50 [5]: > -4.00 Molar
- Log10GI50 ([5]; listed as 757/9): < -8.00 Molar
- Log10TGI ([5]; listed as 757/9): -7.80 Molar
- Log10TGI ([5]; listed as 757/21): > -4.00 Molar
- GI50 [6]: 372 nM
- Log10GI50 [6]: -6.43 Molar
- Log10LC50 [6]: > -4.00 Molar
- Log10TGI [6]: > -4.00 Molar
- Log10GI50 ([6]; listed as 757/21): -6.40 Molar and -6.43 Molar
- GI50 [7]: < 10 nM
- Log10GI50 [7]: < -8 Molar
- Log10LC50 [7]: > -4.00 Molar
- Log10GI50 ([7]; listed as 757/1): < -8.00 Molar
- Log10TGI ([7]; listed as 757/1): > -4.00 Molar
- Log10GI50 ([7]; listed as 757/9): -7.93 Molar
- Log10GI50 ([7]; listed as 757/21): -7.83 Molar and -7.85 Molar
- GI50 [8]: 513 nM
- Log10GI50 [8]: -6.29 Molar
- Log10LC50 [8]: > -4.00 Molar
- Log10TGI ([8]; listed as 757/9): -6.03 Molar
- Log10TGI ([8]; listed as 757/21): -4.19 Molar and > -4.00 Molar
- GI50 [9]: 8320 nM
- Log10GI50 [9]: -5.08 Molar
- Log10LC50 [9]: > -4.00 Molar
- Log10GI50 ([9]; listed as 757/9): -7.29 Molar
- Log10TGI ([9]; listed as 757/9): -5.83 Molar
- Log10GI50 ([9]; listed as 757/21): -5.08 Molar
- Log10TGI ([9]; listed as 757/21): > -4.00 Molar
- Log10LC50 [10]: > -4.00 Molar
- Log10GI50 ([10]; listed as 757/1): -4.75 Molar
- Log10GI50 ([10]; listed as 757/21): < -8.00 Molar
- Log10TGI ([10]; listed as 757/21): -7.73 Molar and -7.65 Molar
